Columns and labels:
[1] = molecular target: Serine/threonine-protein kinase pim-1 (Homo sapiens, UniProt P11309); experiment: (§1) PIM Enzyme Assay: The assay for the determination of Pim activity is based on the formation of phosphorylated biotinylated-BAD peptide at the Serine 112 residue (S112) and employs HTRF (homogeneous time resolved fluorescence) technology to detect the product in a 96-well plate format. The phosphorylation of biotinylated-BAD (S112) peptide by full length recombinant Pim-1, Pim-2, or Pim-3 protein was detected with streptavidin:Allophycocyanin (APC) conjugate and a europium (Eu) labeled antibody directed against phosphorylated-BAD (S112). Excitation of Eu by a high energy laser light (337 nm) leads to a transfer of energy to the APC molecule, and results in an emission at 665 nm. The fluorescence is directly proportional to the amount of phosphorylated BAD peptide present in the reaction.Compounds were prepared in DMSO by conducting 3-fold serial dilutions to give a 10-point dosing curve having a high dose of 1 uM. A reference compound was included on each assay plate in order to validate that plate.
[2] = molecular target: Serine/threonine-protein kinase pim-2 (Homo sapiens, UniProt Q9P1W9); experiment: as §1

IC50 [1]: 4 nM | IC50 [2]: 27 nM
SMILES: N[C@H]1CCC[C@@H](c2ccncc2Nc2ncc3ccc(-c4c(F)cccc4F)nn23)C1 (mixture of isomers)
